Reference: ChEMBL document CHEMBL4823282, “Novel Broad-Spectrum Antimicrobial Peptide Derived from Anoplin and Its Activity on Bacterial Pneumonia in Mice” (J Med Chem, 2021)
Converted amounts (≈) assume the structure as drawn. The source made the active and inactive calls. The rule behind the calls is not given here. Where a SMILES comes first, the peptide text is derived from it. Bridges are numbered along the chain shown (N, C = ends). [ ]: non-standard residue; d: D form. The star is where a group is joined. X1 = CC[C@H](C)CCCCC(=O)*; Dab = NCC[C@H](N)C(=O)O

How the values were obtained:
[1] = tested on: Cell membrane; test: Disruption of membrane integrity in Klebsiella pneumoniae ATCC 700603 assessed as bacterial death at 1 times MIC incubated for 0.5 to 2 hrs by scanning electron microscopy; assay type: subcellular; conditions: Klebsiella pneumoniae 700603, time 0.5-2 hrs
[2] = tested on: Staphylococcus aureus; test: Bactericidal activity against Staphylococcus aureus ATCC 25923 at 2MIC by time-kill assay; assay type: functional, organism-based; conditions: time 24.0 hrs, TDE = time-dependent effect
[3] = tested on: Bacteria; test: Antibacterial activity against bacteria incubated for 18 hrs by CLSI based broth dilution method; assay type: functional
[4] = tested on: Klebsiella pneumoniae; test: Antibacterial activity against Klebsiella pneumoniae ATCC 700603 incubated for 18 hrs by CLSI based broth dilution method; assay type: functional
[5] = tested on: Staphylococcus aureus; test: Disruption of bacterial cell membrane in Staphylococcus aureus ATCC 25923 assessed as increase in PI uptake incubated for 30 to 120 mins by FACS flow cytometry; assay type: functional, organism-based; conditions: time 30-120 min
[6] = tested on: Klebsiella pneumoniae; test: Antibacterial activity against Klebsiella pneumoniae ATCC 700603 infected in BALB/C mouse assessed as reduction in bacterial load in lung at 5 mg/kg, ip measured within 24 hrs by agar plate counting method (reference value: 2.77 x 10^7 CFU/mg); assay type: functional
[7] = tested on: Staphylococcus aureus; test: Disruption of membrane integrity in Staphylococcus aureus ATCC 25923 assessed as membrane blebbing at 1 times MIC measured within 0.5 hrs by scanning electron microscopy; assay type: functional, organism-based
[8] = tested on: Klebsiella pneumoniae; test: Bactericidal activity against Klebsiella pneumoniae 700603 at 2MIC by time-kill assay relative to control; assay type: functional
[9] = tested on: Klebsiella pneumoniae; test: Synergistic antibacterial activity against Klebsiella pneumoniae ATCC 700603 at 2 times MIC incubated for 18 to 24 hrs in presence of 2 times MIC of gentamycin by broth microdilution assay based checkerboard assay; assay type: functional; conditions: time 18-24 hrs
[10] = tested on: Bacteria; test: Antibacterial activity against Gram-positive bacteria incubated for 18 hrs by CLSI based broth dilution method; assay type: functional
[11] = tested on: Fungi; test: Antibacterial activity against fungi incubated for 18 hrs by CLSI based broth dilution method; assay type: functional
[12] = Selectivity ratio of MHC10 for BALB/C mouse erythrocytes to MIC for fungi; assay type: toxicity
[13] = Selectivity ratio of MHC10 for BALB/C mouse erythrocytes to MIC for gram-negative bacteria; assay type: toxicity
[14] = Cytotoxicity against human glomerular mesangial cells incubated for 12 hrs by MTT assay; assay type: cell-based; conditions: Glomerular mesangial cell
[15] = tested on: Cell membrane; test: Induction of inner membrane permeabilization in Klebsiella pneumoniae ATCC 700603 at 0.5 to 4MIC using ONPG as substrate by spectroscopic method; assay type: subcellular; conditions: Klebsiella pneumoniae 700603, 0.5 to 4M
[16] = tested on: Pseudomonas aeruginosa; test: Synergistic antibacterial activity against Pseudomonas aeruginosa ATCC 27853 at 2 times MIC incubated for 18 to 24 hrs in presence of 2 times MIC of rifampicin by broth microdilution assay based checkerboard assay; assay type: functional; conditions: time 18-24 hrs
[17] = tested on: Erythrocyte; test: Hemolytic activity in BALB/C mouse erythrocytes incubated for 1 hr by absorbance method; assay type: ADME, cell-based
[18] = tested on: Staphylococcus aureus; test: Antibacterial activity against Staphylococcus aureus ATCC 25923 incubated for 18 hrs by CLSI based broth dilution method; assay type: functional
[19] = tested on: Pseudomonas aeruginosa; test: Antibacterial activity against rifampin-resistant Pseudomonas aeruginosa ATCC 27853 incubated for 18 hrs by CLSI based broth dilution method; assay type: functional
[20] = tested on: Klebsiella pneumoniae; test: Synergistic antibacterial activity against Klebsiella pneumoniae ATCC 700603 at 2 times MIC incubated for 18 to 24 hrs in presence of 2 times MIC of rifampicin by broth microdilution assay based checkerboard assay; assay type: functional; conditions: time 18-24 hrs
[21] = tested on: Staphylococcus aureus; test: Antibacterial activity against Staphylococcus aureus ATCC 25923 at 0.5 to 1 times MIC incubated for 24 hrs by crystal violet staining based assay; assay type: functional, organism-based
[22] = tested on: Bacteria; test: Antibacterial activity against Gram-negative bacteria incubated for 18 hrs by CLSI based broth dilution method; assay type: functional
[23] = tested on: Enterococcus faecalis; test: Antibacterial activity against Enterococcus faecalis ATCC 29212 incubated for 18 hrs by CLSI based broth dilution method; assay type: functional
[24] = tested on: Cell membrane; test: Disruption of membrane integrity in Staphylococcus aureus ATCC 25923 assessed as bacterial death at 1 times MIC measured within 0.5 hrs by scanning electron microscopy; assay type: subcellular
[25] = tested on: Staphylococcus epidermidis; test: Antibacterial activity against Staphylococcus epidermidis ATCC 12228 incubated for 18 hrs by CLSI based broth dilution method; assay type: functional
[26] = tested on: Escherichia coli; test: Antibacterial activity against Escherichia coli ATCC 25922 incubated for 18 hrs by CLSI based broth dilution method; assay type: functional
[27] = Selectivity ratio of MHC10 for BALB/C mouse erythrocytes to MIC for gram positive bacteria; assay type: toxicity
[28] = tested on: Acinetobacter baumannii; test: Antibacterial activity against Acinetobacter baumannii ATCC 19606 incubated for 18 hrs by CLSI based broth dilution method; assay type: functional; conditions: ATCC 19606 = CIP 70.34 = JCM 6841
[29] = Selectivity ratio of MHC10 for BALB/C mouse erythrocytes to MIC for bacteria; assay type: toxicity
[30] = Toxicity in ip dosed BALB/C mouse measured within 14 days by Karber-method; assay type: organism-based; conditions: in vivo, time 14 day
[31] = tested on: Pseudomonas aeruginosa; test: Antibacterial activity against Pseudomonas aeruginosa ATCC 27853 incubated for 18 hrs by CLSI based broth dilution method; assay type: functional
[32] = tested on: Pseudomonas aeruginosa; test: Antibacterial activity against gentamicin-resistant Pseudomonas aeruginosa ATCC 27853 incubated for 18 hrs by CLSI based broth dilution method; assay type: functional
[33] = tested on: Bacillus subtilis; test: Antibacterial activity against Bacillus subtilis ATCC 23857 incubated for 18 hrs by CLSI based broth dilution method; assay type: functional
[34] = tested on: Lipopolysaccharide (LPS); test: Binding affinity to LPS (unknown origin) assessed as bacterial killing at 2 times MIC preincubated for 1 hr followed by Escherichia coli ATCC 25922 addition and measured after 2 hrs by absorbance method; conditions: time 3.0 hrs
[35] = tested on: Escherichia coli; test: Synergistic antibacterial activity against Escherichia coli ATCC 25922 at 2 times MIC incubated for 18 to 24 hrs in presence of 2 times MIC of rifampicin by broth microdilution assay based checkerboard assay; assay type: functional; conditions: time 18-24 hrs
[36] = Toxicity in BALB/C mouse assessed as mouse death at 15 to 25 mg/kg, ip measured within 2 days; assay type: organism-based; conditions: in vivo, 48 h, dose 15-25 mg/kg, time 2 day
[37] = Stability in BALB/C mouse serum assessed as compound degradation time measured up to 1440 mins by HPLC analysis; assay type: ADME, cell-free; conditions: 24 h
[38] = Toxicity in BALB/C mouse assessed as effect on liver at 19 mg/kg, ip administered as single dose by hematoxylin and eosin staining based assay; assay type: organism-based; conditions: in vivo
[39] = tested on: Cell membrane; test: Disruption of membrane integrity in Staphylococcus aureus ATCC 25923 assessed as membrane shrinking at 1 times MIC measured within 0.5 hrs by scanning electron microscopy; assay type: subcellular
[40] = tested on: Klebsiella pneumoniae; test: Antibiofilm activity against Klebsiella pneumoniae ATCC 700603 incubated for 24 hrs by crystal violet staining based assay; assay type: functional, organism-based
[41] = Toxicity in BALB/C mouse infected with Klebsiella pneumoniae ATCC 700603 assessed as change in liver color at 5 mg/kg, ip by hematoxylin and eosin staining based assay; assay type: organism-based; conditions: in vivo
[42] = tested on: Cell membrane; test: Induction of outer membrane permeabilization in Klebsiella pneumoniae ATCC 700603 at 4MIC measured within 20 mins by N-phenylnaphthylamine dye based fluorescent method; assay type: subcellular; conditions: Klebsiella pneumoniae 700603
[43] = 2M, TDE = time-dependent effect

NCCCC[C@H](NC(=O)[C@H](CCCCN)NC(=O)[C@H](Cc1c[nH]c2ccccc12)NC(=O)[C@H](CCCCN)NC(=O)[C@H](CCCCN)NC(=O)[C@H](Cc1c[nH]c2ccccc12)NC(=O)[C@H](Cc1c[nH]c2ccccc12)NC(=O)[C@@H](N)CCCCN)C(=O)N[C@@H](Cc1c[nH]c2ccccc12)C(=O)N[C@@H](Cc1c[nH]c2ccccc12)C(N)=O (H-KWWKKWKKWW-NH2)
Activity [1]: Active | Activity [2]: Tde | MIC [3]: 4.76 µM (≈ 7.56 µg/mL) | MIC [4]: 8 µM (≈ 12.7 µg/mL) | Activity [5]: Active | Activity [6]: 4.12 10^4CFU/mg | Activity [7]: Active | Activity [8]: 100% | Activity [8, 43]: Tde | FIC [9]: 0.5625 | MIC [10]: 4.76 µM (≈ 7.56 µg/mL) | MIC [11]: 4.76 µM (≈ 7.56 µg/mL) | selectivity ratio [12]: 28.2 | selectivity ratio [13]: 28.2 | IC50 [14]: 40.2 µM | Activity [15]: inactive | FIC [16]: 0.5625 | MHC10 [17]: 134.38 µM | MIC [18]: 4 µM (≈ 6.36 µg/mL) | MIC [19]: 2 µM (≈ 3.18 µg/mL) | FIC [20]: 0.3125 | Activity [21]: Active | MIC [22]: 4.76 µM (≈ 7.56 µg/mL) | MIC [23]: 8 µM (≈ 12.7 µg/mL) | Activity [24]: Active | MIC [25]: 4 µM (≈ 6.36 µg/mL) | MIC [26]: 4 µM (≈ 6.36 µg/mL) | selectivity ratio at 18 h [27]: 28.2 | MIC [28]: 8 µM (≈ 12.7 µg/mL) | selectivity ratio [29]: 28.2 | LD50 at 336 h [30]: 66.5 mg/kg | MIC [31]: 4 µM (≈ 6.36 µg/mL) | MIC [32]: 2 µM (≈ 3.18 µg/mL) | MIC [33]: 4 µM (≈ 6.36 µg/mL) | Activity [34]: Dose-Dependent Effect | FIC [35]: 0.75 | Activity [36]: Toxic | Time [37]: 11.84 min | Activity [38]: Toxic | Activity [39]: Active | Activity [40]: Dose-Dependent Effect

CC[C@H](C)CCCCC(=O)N[C@@H](CCN)C(=O)N[C@H](C(=O)N[C@@H](CCN)C(=O)N[C@H]1CCNC(=O)[C@H]([C@@H](C)O)NC(=O)[C@H](CCN)NC(=O)[C@H](CCN)NC(=O)[C@H](CC(C)C)NC(=O)[C@@H](Cc2ccccc2)NC(=O)[C@H](CCN)NC1=O)[C@@H](C)O (X1-[Dab]T[Dab][Dab][Dab][dF]L[Dab][Dab]T; lactam 4-C)
Activity [1]: Active | Activity [41]: Toxic | Activity [2]: Tde | MIC [3]: 12.3 µM (≈ 14.9 µg/mL) | Activity [42]: Active | MIC [4]: 4 µM (≈ 4.81 µg/mL) | Activity [5]: inactive | Activity [6]: 3.21 10^4CFU/ml | Activity [7]: inactive | Activity [8, 43]: Tde | FIC [9]: 0.5 | MIC [10]: 26.9 µM (≈ 32.4 µg/mL) | MIC [11]: 12.3 µM (≈ 14.9 µg/mL) | selectivity ratio [12]: 4150 | selectivity ratio [13]: 90.5 | IC50 [14]: ≥ 512 µM | Activity [15]: inactive | FIC [16]: 0.3125 | MHC10 [17]: >= 512 uM | MIC [18]: 16 µM (≈ 19.3 µg/mL) | MIC [19]: 2 µM (≈ 2.41 µg/mL) | FIC [20]: 0.3125 | Activity [21]: Active | MIC [22]: 5.66 µM (≈ 6.81 µg/mL) | MIC [23]: 128 µM (≈ 154 µg/mL) | Activity [24]: inactive | MIC [25]: 32 µM (≈ 38.5 µg/mL) | MIC [26]: 4 µM (≈ 4.81 µg/mL) | selectivity ratio at 18 h [27]: 19 | MIC [28]: 32 µM (≈ 38.5 µg/mL) | selectivity ratio [29]: 4150 | LD50 at 336 h [30]: 16.4 mg/kg | MIC [31]: 4 µM (≈ 4.81 µg/mL) | MIC [32]: 2 µM (≈ 2.41 µg/mL) | MIC [33]: 8 µM (≈ 9.63 µg/mL) | Activity [34]: Dose-Dependent Effect | FIC [35]: 0.125 | Activity [36]: Toxic | Activity [39]: inactive
